# Assay results published in patent US9840532B2, “5′-substituted nucleoside compounds” (Eli Lilly and Company, priority 2015, dated 2017).
# How the values were obtained:
# [1] = tested on: PRMT5-dependent alternative splicing of MDM4 in A375 melanoma cells; experiment: MDM4 Exon5/6 qPCR Assay in A375 Tumor Cells; format: cell-based; conditions: Homo sapiens, A-375, 72 hr, Mean ± SEM
# Experimental: Culture A375 tumor cells (ATCC), a melanoma cancer cell line, to 70%-90% confluence in T150 flasks with the growth medium (DMEM; HYCLONE™ #SH30022 with 10% FBS; GIBCO® 10082-147 or equivalent). Treat the cells with standard trypsin/EDTA treatment for 3 min and aspirate and wash with PBS to release the adherent cells from the culture flask. Seed the cells into a 96 well plate (Costar 3596) at 5000/well in growth medium (90 μL). Incubate the plate overnight at 37° C. and 5% CO2 and treat the cells with test compound at serial dilutions ([…], final DMSO addition of 0.2% yield) for 72 hr. Measure activity relative to maximum (2.0 μM of Example 2 and minimum (0.2% DMSO) controls.
# On Day 5 after incubation, remove the medium from the culture plates and wash the cells twice with cold PBS (150 μL/well). Prepare Lysis Working Reagent from the TAQMAN® Gene Expression Cells-to-CT Kit (INVITROGEN™ cat. # AM1729) by dilution of DNAse 1 into Lysis Solution at 1/100. Add Lysis Working Reagent (50 μL/well) to the cell plates, mix well, and incubate at room temperature for 5 min Add kit stop solution (5 μL) to each well, mix the wells, and incubate for 2 min at room temperature. Prepare Reverse Transcriptase Master Mix in the following volume ratios; RT buffer: Nuclease-free water: RT Enzyme at 62.5:31.25:6.25. Add RT mix (48 μL/well) to each well of a 96-well NUNC™ plate (THERMO SCIENTIFIC™ #260860). Add RT mix (20 μL) and each cell lysate sample (5 μL) into a 384 PCR plate (Clear Optical Reaction Plate, cat. #4309849, APPLIED BIOSYSTEMS®) quadrant 1 and add a second addition of RT Mix and cell lysate to quadrant 3. For the RT reaction, seal the plates and then place them in a thermal cycler set at 37° C. for 60 min; 95° C. for 5 min; stop at 4° C. For qPCR, prepare MDM4 exon 5 primers (Life Technologies Hs00967240-ml) and exon 6 primers (Life Technologies Hs00967242-ml) separately in the following volume ratios of RT mix: H2O: exon probe at 10:6:1. Add Exon 5 (17 μL) to odd columns of a 384 PCR plate and add exon 6 (17 μL) to the even columns. Add cDNA (3 μL, from the RT plate) by quadrant stamping to each well of the qPCR plate containing the 17 μL exon primer solution. In this manner, perform qPCR for both exons on cDNAs from a single RT reaction on an individual cell lysate. Seal the plates, spin, and place on a real-time PCR instrument (Life Technologies ViiA7 Real-Time PCR). […]
# Retrieve CT data from the real-time PCR reader and perform the following calculations, where “CPD” is the value from compound-treated samples, and “DMSO” is the minimum control sample, using an Excel template: (Exon 6 CT CPD−Exon 6 CT DMSO)−(Exon 5 CT CPD−Exon 5 CT DMSO)=ΔCT 2^(−ΔCT)=Fold Change […]
# [2] = tested on: A375 cells; experiment: Protocol Proliferation 7-day (CELL TITER-GLO); format: cell-based; conditions: Homo sapiens, A-375, 168 h, 7 days, Mean ± SEM
# Experimental: The purpose of this assay is to measure the ability of test compounds to inhibit proliferation of cancer cells.
# On day 1, plate A375 cells (ATCC, DMEM high glucose/10% Hi FBS) at 250 cells/well (100 μL/well) in a 96-well assay plate (BD Falcon 35-3219). Incubate the plates in a 37° C. incubator (5% CO2) for 18-24 hr. On day 2, prepare and serially dilute test compounds in medium (1:2 10-point serial dilution) from compound stock solutions (10 mM in 100% DMSO). Add 10 μL of serial diluted test compounds to cell plates (0.2% DMSO final concentration). Add 10 μL of reference compound (Example 1) to column 1 of cell plates (20 μM final, 0.2% DMSO). Incubate cell plates at 37° C./5% CO2 for 7 days. On day nine, thaw the CELL TITER-GLO® (Promega #G7571) buffer and equilibrate to room temperature prior to use. Also, equilibrate the lyophilized CELL TITER-GLO® substrate to room temperature prior to use. Transfer CELL TITER-GLO® buffer to an amber substrate bottle to reconstitute the lyophilized enzyme/substrate mixture to form the CELL TITER-GLO® reagent. Equilibrate the cell plate(s) to room temperature for […] Gently remove media in cell plates by flicking and blotting on a stack of paper towels. Add CELL TITER-GLO® reagent (25 μL) to each well. Incubate plates for […] at room temperature before reading. Measure luminescence using PERKIN-ELMER® ENVISION® Multi-label Plate Reader. Analyze this luminescence data by a 4-parameter curve fit using Activity Base, to yield cell proliferation IC50 values.
EC50 [1] [µM],IC50 [2] [µM],SMILES
0.0168,0.0108,"Nc1ncnc2c1ccn2[C@@H]1O[C@H]([C@H](O)c2ccc(Cl)cc2)[C@@H](O)[C@H]1O [Example 1, (2R,3R,4S,5R)-2-(4-Aminopyrrolo[2,3-d]pyrimidin-7-yl)-5-[(R)-(4-chlorophenyl)-hydroxy-methyl]tetrahydrofuran-3,4-diol]"
0.0424,0.044,"C[C@@](O)(c1ccc(Cl)cc1)[C@H]1O[C@@H](n2ccc3c(N)ncnc32)[C@H](O)[C@@H]1O [Example 3, (2R,3R,4S,5S)-2-(4-Aminopyrrolo[2,3-d]pyrimidin-7-yl)-5-[(1R)-1-(4-chlorophenyl)-1-hydroxy-ethyl]tetrahydrofuran-3,4-diol]"

SMILES,EC50 [1] [µM],IC50 [2] [µM]
"Nc1ncnc2c1ccn2[C@@H]1O[C@H]([C@H](O)c2ccccc2)[C@@H](O)[C@H]1O [Example 2, (2R,3R,4S,5R)-2-(4-Aminopyrrolo[2,3-d]pyrimidin-7-yl)-5[(R)-hydroxy(phenyl)methyl]tetrahydrofuran-3,4-diol]",0.0367,0.0315
